These results are taken from patent US20020193377A1, “Quinazolines as MMP-13 inhibitors” (priority 2001, published 2002).

Test system in one data set: not given
Assay: not given
Conditions: not given
What is called melting point is the temperature of the solid-liquid transition. For the molecule `Cn1c(=O)n(Cc2ccccc2)c(=O)c2cc(C(=O)OC/C=C/c3ccncc3)ccc21`, the melting point amounted to 147 °C.
Turning to `Cn1c(=O)n(Cc2ccccc2)c(=O)c2cc(C(=O)OC/C=C/c3cccnc3)ccc21`, the melting point amounted to 184 °C.
`COc1ccc(CNC(=O)c2ccc3c(c2)c(=O)n(Cc2ccc(C(=O)OCCN(C)C)c(OC)c2)c(=O)n3C)cc1`: the melting point stood at 130 °C.
Same read-out and setting: to `COc1ccc(CNC(=O)c2ccc3c(c2)c(=O)n(Cc2ccc(-c4noc(=O)[nH]4)cc2)c(=O)n3C)cc1` belongs 305 °C; to `Cn1c(=O)n(Cc2ccc(F)cc2)c(=O)c2cc(C(=O)NCc3cccnc3)ccc21`, 166 to 168 °C; to `Cn1c(=O)n(Cc2ccc(Cl)cc2)c(=O)c2cc(C(=O)NCc3cccnc3)ccc21`, 173 to 175 °C.
On the same count and under the same terms, to `COc1cccc(CNC(=O)c2ccc3c(c2)c(=O)n(Cc2ccc(Cl)cc2)c(=O)n3C)c1` belongs 178 to 180 °C.
Same read-out and setting: to `COc1cc(CNC(=O)c2ccc3c(c2)c(=O)n(Cc2ccc(F)cc2)c(=O)n3C)ccn1` belongs 174 to 175 °C; to `COc1ccc(CNC(=O)c2ccc3c(c2)c(=O)n(Cc2ccc(C4(C(=O)OC(C)(C)C)CC4)cc2)c(=O)n3C)cc1`, 148 to 149 °C; to `COc1ccc(CNC(=O)c2ccc3c(c2)c(=O)n(Cc2ccc(C4(C(=O)O)CC4)cc2)c(=O)n3C)cc1`, 179 to 181 °C.
As to `Cn1c(=O)n(Cc2ccccc2)c(=O)c2cc(SCc3ccccc3)ccc21`, the melting point fell in the range of 117 to 118 °C.
`Cn1c(=O)n(Cc2ccccc2)c(=O)c2cc([S+]([O-])Cc3ccccc3)ccc21` (centres unmarked) displayed a melting point of 182 to 183 °C.
The same measure, in the same setting: next, `Cn1c(=O)n(Cc2ccccc2)c(=O)c2cc(S(=O)(=O)Cc3ccccc3)ccc21`: 173 to 175 °C; `O=C(NCc1ccc2c(c1)OCO2)c1ccc2[nH]c(=O)n(Cc3ccc4c(c3)OCO4)c(=O)c2c1` [Example 28, 3-(Benzo[1,3]dioxol-5-ylmethyl)-2,4-dioxo-1,2,3,4-tetrahydroquinazoline-6-carboxylic acid (benzo[1,3]dioxol-5-ylmethyl)amide]: 245.2 °C.

The next data set deals with MMP-1, MMP-2, MMP-3, MMP-9 and MMP-13.
Assay: not given
Conditions: prior art, non-selective inhibitors; cited from earlier work.
`CC1(C)SCCN(S(=O)(=O)c2ccc(Oc3ccncc3)cc2)[C@H]1C(=O)NO` [AG-3340]: the “inhibition of several MMPs (in words)” value is “inhibit both MMP-1, MMP-2, MMP-3, MMP-9 and MMP-13”.
Regarding `COc1ccc(S(=O)(=O)N(Cc2cccnc2)[C@@H](C(=O)NO)C(C)C)cc1` [CGS-27.023A], the “inhibition of several MMPs (in words)” value is “inhibit both MMP-1, MMP-2, MMP-3, MMP-9 and MMP-13”.

A further data set addresses T1, human collagenase-3 catalytic domain enzyme (MMP13) (Homo sapiens, UniProt P45452).
T1 construct: human collagenase-3 catalytic domain enzyme
In words: MMP13CD Thiopeptolide Assay.
Conditions: not given
In kind it is biochemical. Here is the method: MMP13CD Thiopeptolide Assay: Proteolysis of the thiopeptolide substrate Ac-Pro-Leu-Gly-thioester-Leu-Leu-Gly-OEt is used as the primary screen to determine IC50 values for MMP13 inhibitors. A 100 μl reaction contains 50 mM HEPES, 10 mM CaCl2, pH 7.0 (RT), 1 mM 5,5′-dithiobis(2-nitrobenzoic acid) (DTNB), 100 μM substrate, inhibitor in 2.0% DMSO and 2.5 nM human collagenase-3 catalytic domain enzyme. Inhibitors are screened from 100 μM to 0.5 nM. […] Percentage of control velocity in inhibited treatments is plotted against inhibitor concentration to calculate IC50 values.
A word on the IC50: it is the concentration needed to halve the response being measured. Low readings indicate higher potency, high ones lower potency. As for `O=C(NCc1ccc2c(c1)OCO2)c1ccc2[nH]c(=O)n(Cc3ccc4c(c3)OCO4)c(=O)c2c1` [Example 28, 3-(Benzo[1,3]dioxol-5-ylmethyl)-2,4-dioxo-1,2,3,4-tetrahydroquinazoline-6-carboxylic acid (benzo[1,3]dioxol-5-ylmethyl)amide], the IC50 was 9 nM.
On the same count and under the same terms, to `Cn1c(=O)[nH]c(=O)c2cc(C(=O)NCc3ccc4c(c3)OCO4)ccc21` [Example 33, 1-Methyl-2,4-dioxo-1,2,3,4-tetrahydrquinazoline-6-carboxylic acid (benzo[1,3]-dioxol-5-ylmethyl)amide] belongs 3 nM; to `COC(=O)c1ccc(Cn2c(=O)c3cc(C(=O)NCc4ccc(OC)cc4)ccc3n(C)c2=O)cc1` [Example 34, Methyl 4-[6-(4-methoxy-benzylcarbamoyl)-1-methyl-2,4-dioxo-1,4-dihydro-2H-quinazolin-3-ylmethyl]-benzoate], 26 nM.
On the same count and under the same terms, next, `Cn1c(=O)n(C/C=C/c2ccccc2)c(=O)c2cc(C(=O)NCc3ccc4c(c3)OCO4)ccc21` [Example 36, 1-Methyl-2,4-dioxo-3-((E)-3phenylally)-1,2,3,4-tetrahydroquinazoline-6-carboxylic acid (benzo[1,3]dioxol-5-ylmethyl)amide]: 600 nM; `O=C(OCc1ccccc1)c1ccc2[nH]c(=O)n(Cc3ccccc3)c(=O)c2c1` [Example 37, Benzyl 3-benzyl-2,4-dioxo-1,2,3,4-tetrahydroquinazolne-6-carboxylate]: 750 nM.
Still for that read-out and setting: to `O=C(OCc1ccncc1)c1ccc2[nH]c(=O)n(Cc3ccccc3)c(=O)c2c1` [Example 39, 4-Pyridylmethyl 3-benzyl-2,4-dioxo-1,2,3,4-tetrahydroqinazoline-6-carboxylate] belongs 1 nM; to `Cn1c(=O)n(Cc2ccccc2)c(=O)c2cc(C(=O)OCc3ccncc3)ccc21` [Example 40, 4-Pyridylmethyl 3-benzyl-1-methyl-2,4-dioxo-1,3,3,4-tetrahydroquinazoline-6-carboxylate], 28 nM.
`O=C(OCc1ccc2c(c1)OCO2)c1ccc2[nH]c(=O)n(Cc3ccccc3)c(=O)c2c1` [Example 41, Benzo[1,3]dioxol-5-ylmethyl3-benzyl-2,4-dioxo-1,2,3,4-tetrahydroquinazoline-6-carboxylate] had an IC50 of 29 nM.
On the same count and under the same terms, to `Cn1c(=O)n(Cc2ccccc2)c(=O)c2cc(C(=O)OCc3ccc4c(c3)OCO4)ccc21` [Example 42, Benzo[1,3]dioxol-5-ylmethyl3-benzyl-1-methyl-2,4-dioxo-1,2,3,4-tetrahydroquinazoline-6-carboxylate] belongs 31 nM; to `O=C(OCc1ccccc1)c1ccc2c(c1)c(=O)n(Cc1ccncc1)c(=O)n2Cc1ccccc1` [Example 43, Benzyl 1-benzyl-2,4-dioxo-3-pyrid-4-ylmethyl-1,2,3,4-tetrahydroquinazoline-6carboxylate], 11 nM; to `O=C(OCc1ccncc1)c1ccc2[nH]c(=O)n(Cc3cccs3)c(=O)c2c1` [Example 44, 4-Pyridylmethyl 2,4-dioxo-3-(thien-2-ylmethyl)-1,2,3,4-tetrahydroquinazoline-6-carboxylate], 4 nM.
`O=C(OCc1ccncc1)c1ccc2[nH]c(=O)n(Cc3ccc4c(c3)OCO4)c(=O)c2c1` [Example 45, 4-Pyridylmethyl3-(benzo[1,3]dioxol-5-ylmethyl)-2,4-dioxo-1,2,3,4-tetrahydroquinazoline6-carboxylate] had an IC50 of 7 nM.
Turning to `O=C(OCc1ccccc1)c1cnc2[nH]c(=O)n(Cc3ccccc3)c(=O)c2c1` [Example 46, Benzyl 3-benzyl-2,4-dioxo-1,2,3,4-tetrahydroprido[2,3-d]pyrimidine-6-carboxylate], the midpoint of inhibition, the IC50, lay at 2.5 nM.
Same read-out and setting: next, `O=C(OCc1ccncc1)c1cnc2[nH]c(=O)n(Cc3ccccc3)c(=O)c2c1` [Example 47, 4-Pyridylmethyl 3-benzyl-2,4-dioxo-1,2,3,4-tetrahydropyrido[2,3-α]pyrimidine-6-carboxylate]: 1210 nM; `O=C(NCc1ccc2c(c1)OCO2)c1ccc2[nH]c(=S)n(Cc3ccccc3)c(=O)c2c1` [Example 48, 3-Benzyl-4-oxo-2-thioxo-1,2,3,4-tetrahydroquinazoline-6-carboxylic acid (benzo[1,3]dioxol-5-ylmethyl)amide]: 16 nM; `Cn1c(=O)n(Cc2ccc(C(=O)O)cc2)c(=O)c2cc(C(=O)NCc3ccc(O)cc3)ccc21` [Example 49, 4-[6-(4-Hydroxy-benzylcarbamoyl)-1-methyl-2,4-dioxo-1,4-dihydro-2H-quinazolin-3-ylmethyl]-benzoic acid]: 7 nM.
Still for that read-out and setting: to `COc1ccc(CNC(=O)c2ccc3c(c2)c(=O)n(Cc2ccc(C(=O)N(C)C)cc2)c(=O)n3C)cc1` [Example 50, 3-(4-Dimethylcarbamoyl-benzyl)-1-methyl-2,4-dioxo-1,2,3,4-tetrahydro quinazoline-6-carboxylic acid 4-methoxy-benzylamide] belongs 96 nM; to `CNC(=O)c1ccc(Cn2c(=O)c3cc(C(=O)NCc4ccc(OC)cc4)ccc3n(C)c2=O)cc1` [Example 51, 1-Methyl-3-(4-methylcarbamoyl-benzyl)-2,4-dioxo-1,2,3,4-tetrahydro-quinazoline-6-carboxylic acid 4-methoxy-benzylamide], 62 nM.
On the same count and under the same terms, next, `C=CCn1c(=O)c2cc(C(=O)NCc3ccc(OC)cc3)ccc2n(C)c1=O` [Example 52, 3-Allyl-1-methyl-2,4-dioxo-1,2,3,4-tethydro-quinazoline-6-carboxylic acid 4-methoxy-benzylamiide]: 14 nM.
